Laboratory results: US20150073033A1, “BIOMARKERS FOR CANCER CHARACTERIZATION AND TREATMENT” (Board of Regents, The University of Texas System, priority 2011, published 2015)

Tests used:
Format in all cases: cell-based, human
PKM2 expression = assay: EGF-induced PKM2 upregulation, immunoblotting; settings: U87/EGFR cells; pretreatment before EGF 100 ng/mL 12 h; AG1478 1 μM, cycloheximide 200 μg/mL, Bis-I 2 μM, Go6976 2 μM, NF-κB activation inhibitor II 7 μM, AKT inhibitor 10 μM, TBB 50 μM, U73122 2 μM
Method: FIG. 56: EGFR activation results in upregulation of PKM2 expression. A-D: Immunoblotting analyses were performed with or without the indicated antibodies. A: The indicated cell lines were treated with EGF (100 ng/mL) for 12 h. B: U87 cells were stably transfected with plasmids expressing EGFR or EGFRvIII. […] D: U87/EGFR cells were pretreated with or without cycloheximide (CHX) (200 μg/mL) for 30 min before EGF (100 ng/mL) treatment for 12 h. […] The relative mRNA levels of PKM2 and PKM1 were normalized to the levels of untreated cells and β-actin mRNA. Data represent the mean±SD of three independent experiments.
FIG. 57: EGF increases PKM2 expression in a PKC- and NF-κB-dependent manner. A-D, H: Immunoblotting analyses were performed with the indicated antibodies. […] ChIP assay was performed with an anti-RelA antibody for immunoprecipitation, followed by PCR with PKM promoter-specific primers. F: An oligonucleotide containing the putative WT or mutated NF-κB binding sequence was labeled using [γ-^32P] ATP and T4 polynucleotide kinase. […] Samples were subjected to 5% polyacrylamide gel electrophoresis, and the dried gel was exposed to x-ray film. […] The relative levels of luciferase activity were normalized to the levels of untreated cells and to the levels of luciferase activity of the Renilla control plasmid. Data represent the mean±standard deviation of three independent experiments.
(§1) FIG. 58: PKCε downstream from PLCγ1, rather than TAK1, activates IKKβ and subsequently increases PKM2 expression. […] B: U87/EGFR cells were treated with TNFα (10 ng/mL) for the indicated time. C: U87/EGFR cells were treated with or without EGF (100 ng/mL) or TNFα (10 ng/mL) for 4 h. […] HIF1α was immunodepleted from the cell lysates by incubation with an anti-HIF1α antibody, which was followed by a ChIP assay with an anti-FLAG antibody for immunoprecipitation of FLAG-RelA and PCR analysis with PKM promoter-specific primers. […] F: 293T cells were transiently transfected with constitutively active (+) or kinase-dead (−) PKC mutants. […] H, I: 293T cells were transiently transfected with the indicated plasmids.

NF-κB = assay: TNFα-induced, NF-κB-dependent IκBα promoter luciferase reporter; settings: U87/EGFR cells; NF-κB activation inhibitor II 7 μM 30 min before TNFα 10 ng/mL 8 h
Method: FIG. 63: PKC, NF-κB, PI3-K, and CK2 are inhibited by their inhibitors. A, B: U87/EGFR cells were treated with Bis-I (2 μM) (A) or Go6976 (2 μM) (B) for 30 min before 12-O-tetradecanoylphorbol-13-acetate (TPA) ([…]) for 8 h. Immunoblotting analyses were performed with the indicated antibodies. C: U87/EGFR cells transiently expressing a luciferase reporter vector containing the IκBα promoter were pretreated with or without NF-κB activation inhibitor II (7 μM) for 30 min before TNFα (10 ng/mL) for 8 h. The relative levels of luciferase activity were normalized to the levels of untreated cells and to the levels of luciferase activity of the Renilla control plasmid. Data represent the mean±standard deviation of three independent experiments. […] Immunoblotting analyses were performed with the indicated antibodies.
The luciferase reporter vector pGL3-promoter containing either the WT or a mutated PKM promoter fragment or a luciferase reporter vector containing the IκBα promoter was transfected into U87/EGFR cells, RelA+/+, or RelA−/− fibroblasts seeded in 24-well plates at 1.5×10^4 cells/well. Twelve hours after transfection, the medium was replaced with 0.1% serum for another 12-24 h, and EGF (100 ng/mL) was added 12 h before harvesting. […] cell extract were used for measuring luciferase activity. […]

PTBP1 = PTBP1 protein expression upon EGF stimulation; settings: U251 cells; NF-κB activation inhibitor II 7 μM 30 min before EGF 100 ng/mL 8 h
Method: FIG. 64: EGF increases PKM2 expression in a RelA- and PTBP1-dependent manner. […] Data represent the mean±standard deviation of three independent experiments. […] Immunoblotting analyses were performed with the indicated antibodies. C: RelA deficiency inhibits EGF-increased mRNA levels of PKM2, but not of PKM1. mRNA expression levels of PKM2 and PKM1 in RelA^+/+ and RelA^−/− fibroblasts treated with or without EGF (100 ng/mL) for 8 h were measured by real-time quantitative RT-PCR analysis. β-actin mRNA from the same cDNA library was amplified as a control. The relative mRNA levels of PKM2 (left panel) and PKM1 (right panel) were normalized to the levels of untreated cells and β-actin mRNA. Data represent the mean±SD of three independent experiments. D: PTBP1 depletion blocked EGF-induced PKM2 mRNA expression. […] The relative mRNA levels of PKM2 and PKM1 were normalized to the levels of untreated cells and β-actin mRNA. Data represent the mean±SD of three independent experiments. […] U87/EGFR cells transiently expressing a luciferase reporter vector containing the IκBα promoter were treated with or without TNFα (10 ng/mL) or EGF (100 ng/mL) for 8 h. The relative levels of luciferase activity were normalized to the levels of untreated cells and to the levels of luciferase activity of the Renilla control plasmid. Data represent the mean±standard deviation of three independent experiments.

IKKβ = assay: EGF-induced IKKβ activation, immunoblotting; settings: U87/EGFR cells; U73122 2 μM 30 min before EGF 100 ng/mL 12 h
Method: as §1

## Cc1ccc(NCCCc2ccccc2)c(N)c1 [NF-κB activation inhibitor II]
PKM2 expression
  EGF-induced PKM2 upregulation/expression: largely abrogated
NF-κB
  TNFα-induced and NF-κB-dependent IκBα promoter activation: successfully blocked
PTBP1
  PTBP1 protein expression: not affected

## COc1ccc2c(c1)CC[C@@H]1[C@@H]2CC[C@]2(C)[C@@H](NCCCCCCN3C(=O)C=CC3=O)CC[C@@H]12 [U73122]
PKM2 expression
  EGF-induced PKM2 upregulation/expression: abrogated
IKKβ
  EGF-induced IKKβ activation: abrogated
